The text below walks through data of patent US8993608B2, “Method for inhibiting topoisomerase II” (Synta Pharmaceuticals Corp., priority 2007, dated 2015).

One experiment deals with Her2. Description: Degradation of Her2 in BT-474 cells after treatment (Method 1, SDS-PAGE/immunoblot). It counts as cell-based, Human. Conditions: overnight. As for the experimental part: Human high-Her2 breast carcinoma BT474 (HTB-20), SK-BR-3 (HTB-30) and MCF-7 breast carcinoma (HTB-22) from American Type Culture Collection, Va., USA were grown in Dulbecco's modified Eagle's medium with 4 mM L-glutamine and antibiotics (100 IU/ml penicillin and 100 ug/ml streptomycine;GibcoBRL). To obtain exponential cell growth, cells were trypsinized, counted and seeded at a cell density of 0.5×10^6 cells /ml regularly, every 3 days. All experiments were performed on day 1 after cell passage.
BT-474 cells were treated with 0.5 μM, 2 μM, or 5 μM of 17AAG (a positive control) or 0.5 μM, 2 μM, or 5 μM of Compound 108 or Compound 49 overnight in DMEM medium. After treatment, each cytoplasmic sample was prepared from 1×10^6 cells by incubation of cell lysis buffer (#9803, cell Signaling Technology) on ice for 10 minutes. The resulting supernatant used as the cytosol fractions were dissolved with sample buffer for SDS-PAGE and run on a SDS-PAGE gel, blotted onto a nitrocellulose membrane by using semi-dry transfer. Non-specific binding to nitrocellulose was blocked with 5% skim milk in TBS with 0.5% Tween at roomtemperature for 1 hour, then probed with anti-Her2/ErB2 mAb (rabbit IgG, #2242, Cell Signaling) and anti-Tubulin (T9026, Sigma) as housekeeping control protein. HRP-conjugated goat anti-rabbit IgG (H+L) and HRP-conjugated horse anti-mouse IgG (H+L) were used as secondary Ab (#7074, #7076, Cell Signaling) and LumiGLO reagent, 20× Peroxide (#7003, Cell Signaling) was used for visualization.
(A western blot detects proteins with antibodies after separation by electrophoresis.)

Another experiment addresses T1, topoisomerase II (Homo sapiens, UniProt P11388).
T1 construct: purchased TopoGEN, Inc
Description: kDNA decatenation assay for inhibition of topoisomerase II. It counts as biochemical. Conditions: 200 nM, lane 8 of FIG. 3. As for the experimental part:
The ability of compounds of the invention to inhibit the activity of topoisomerase II was examined with a kDNA decatenation assay (TopoGEN, Inc. Port Orange, Fla.). Substrate kDNA was mixed with compounds and incubated at 37° C. for 30 min. The reaction was stop by adding ⅕ volume of stop buffer. 20 μl of the reaction was loaded on 1% agarose gel. Image of decatenation of kDNA by compounds was taken by Kodak Image Station 440.
In the presence of topoisomerase II, decatenated nicked and circular kDNAs are located at the bottom of the gel. […] Table 9 indicates the ability of compounds of the invention to inhibit the activity of topoisomease II.

The target in the next experiment is human topo II (Homo sapiens, UniProt P11388). The conditions noted are these: Gadelle et al., Biochemical Pharmacology (2006); cited from earlier work.
Another experiment relates to Hsp90 protein. Description: Malachite Green Assay of ATPase activity of Hsp90 protein. It counts as biochemical. As for the experimental part:
Hsp90 protein was obtained from Stressgen (Cat#SPP-770). Assay buffer: 100 mM Tris-HCl, Ph7.4, 20 mM KCl, 6 mM MgCl2. […] Malachite green reagent was added to the reaction. […] The plate was read by an ELISA reader with an absorbance at 620 nm.

human topo II, sequence (P11388 whole entry): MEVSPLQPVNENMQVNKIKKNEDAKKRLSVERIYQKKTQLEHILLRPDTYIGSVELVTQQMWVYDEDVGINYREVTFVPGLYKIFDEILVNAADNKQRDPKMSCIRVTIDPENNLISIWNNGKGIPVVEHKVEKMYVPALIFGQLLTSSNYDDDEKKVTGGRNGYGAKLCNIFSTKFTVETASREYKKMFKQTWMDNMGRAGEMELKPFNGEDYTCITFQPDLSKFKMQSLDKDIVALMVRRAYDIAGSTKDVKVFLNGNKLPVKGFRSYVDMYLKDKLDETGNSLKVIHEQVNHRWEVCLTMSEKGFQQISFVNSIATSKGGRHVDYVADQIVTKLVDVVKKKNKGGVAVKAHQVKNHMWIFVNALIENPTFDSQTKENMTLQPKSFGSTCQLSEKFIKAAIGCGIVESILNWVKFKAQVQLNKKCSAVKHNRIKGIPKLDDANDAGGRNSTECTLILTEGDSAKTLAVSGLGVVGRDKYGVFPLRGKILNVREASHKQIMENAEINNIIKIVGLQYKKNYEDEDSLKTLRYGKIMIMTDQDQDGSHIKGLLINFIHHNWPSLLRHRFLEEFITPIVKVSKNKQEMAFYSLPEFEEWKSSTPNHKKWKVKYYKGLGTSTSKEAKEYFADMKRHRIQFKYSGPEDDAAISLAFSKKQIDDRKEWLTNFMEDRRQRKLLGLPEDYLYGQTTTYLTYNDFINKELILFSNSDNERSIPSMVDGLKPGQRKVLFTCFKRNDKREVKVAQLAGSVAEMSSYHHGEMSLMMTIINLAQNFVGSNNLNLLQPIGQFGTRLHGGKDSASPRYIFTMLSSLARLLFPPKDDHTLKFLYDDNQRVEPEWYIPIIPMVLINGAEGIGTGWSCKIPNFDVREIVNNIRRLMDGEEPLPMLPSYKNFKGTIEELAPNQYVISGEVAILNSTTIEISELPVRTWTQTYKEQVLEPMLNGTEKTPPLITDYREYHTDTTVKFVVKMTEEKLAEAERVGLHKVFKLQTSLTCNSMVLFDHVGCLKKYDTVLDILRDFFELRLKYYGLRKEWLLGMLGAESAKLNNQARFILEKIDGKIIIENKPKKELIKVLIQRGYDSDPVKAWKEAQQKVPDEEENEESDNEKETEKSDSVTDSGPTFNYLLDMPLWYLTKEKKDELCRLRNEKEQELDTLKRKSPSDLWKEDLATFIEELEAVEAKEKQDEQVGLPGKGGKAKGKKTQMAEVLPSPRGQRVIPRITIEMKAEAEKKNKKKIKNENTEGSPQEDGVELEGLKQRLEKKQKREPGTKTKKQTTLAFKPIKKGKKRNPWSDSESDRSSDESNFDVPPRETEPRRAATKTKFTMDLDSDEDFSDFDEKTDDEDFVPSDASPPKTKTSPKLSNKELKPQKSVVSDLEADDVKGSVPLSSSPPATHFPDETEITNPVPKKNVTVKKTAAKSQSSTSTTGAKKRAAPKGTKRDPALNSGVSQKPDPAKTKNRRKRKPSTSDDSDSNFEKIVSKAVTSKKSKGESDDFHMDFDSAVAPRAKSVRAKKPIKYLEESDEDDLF
T1 sequence (P11388 whole entry): as above

For the compound `CCc1cc(-c2nnc(S)n2-c2cccc3ccccc23)c(O)cc1O` [Compound 49, 3-(2,4-Dihydroxy-5-ethyl-phenyl)-4-(naphthalen-1-yl)-5-mercapto-triazole], the “degradation of Her2” value with Her2 (0.5 μM) is “partial degradated”; in the experiment with Her2 (2 μM) it was “complete degradation”; in the experiment on Her2 (5 μM), “complete degradation”.

Take `C[C@@H]1C[C@H]2O[C@@H]2/C=C\C=C\C(=O)Cc2c(Cl)c(O)cc(O)c2C(=O)O1` [radicicol]: at topoisomerase II, the “inhibition of the activity of topoisomerase II” value was “completely inhibits the activity of topoisomerase II”. Moreover, the “inhibition of the activity of human topo II” value on human topo II is “can inhibit the activity of human topo II”.

Consider `Oc1ccc(-c2nnc(S)n2-c2cccc3ccccc23)c(O)c1` [Compound 108, 3-(2,4-Dihydroxy-phenyl)-4-(naphthalen-1-yl)-5-mercapto-triazole], for which the “inhibition of ATPase activity of Hsp90” value was “significant inhibition” in the experiment on Hsp90 protein (4 μM) and “even greater inhibition of ATPase activity of Hsp90 than geldanamycin” with Hsp90 protein (40 μM). Moreover, the “degradation of Her2” value in the experiment on Her2 (0.5 μM) was “partially degradated”; in the experiment on Her2 (2 μM), “partially degradated”; in the experiment with Her2 (5 μM) it was “almost completely degraded”.
